According to PubChem BioAssay AID651677 (The Scripps Research Institute Molecular Screening Center, 2012):
Activity calls are given as the source filed them. The rule behind the calls is not given here.

Molecular target: Perilipin-5 (Homo sapiens) + 1-acylglycerol-3-phosphate O-acyltransferase ABHD5 (Homo sapiens) (UniProt Q00G26+Q8WTS1)
Assay: ABHD5-PLIN5 interaction inhibitors, dose response, biochemical, luminescence (AID 651677)

Chain of Perilipin-5 (Homo sapiens) + 1-acylglycerol-3-phosphate O-acyltransferase ABHD5 (Homo sapiens) (Q00G26 whole entry, looked up): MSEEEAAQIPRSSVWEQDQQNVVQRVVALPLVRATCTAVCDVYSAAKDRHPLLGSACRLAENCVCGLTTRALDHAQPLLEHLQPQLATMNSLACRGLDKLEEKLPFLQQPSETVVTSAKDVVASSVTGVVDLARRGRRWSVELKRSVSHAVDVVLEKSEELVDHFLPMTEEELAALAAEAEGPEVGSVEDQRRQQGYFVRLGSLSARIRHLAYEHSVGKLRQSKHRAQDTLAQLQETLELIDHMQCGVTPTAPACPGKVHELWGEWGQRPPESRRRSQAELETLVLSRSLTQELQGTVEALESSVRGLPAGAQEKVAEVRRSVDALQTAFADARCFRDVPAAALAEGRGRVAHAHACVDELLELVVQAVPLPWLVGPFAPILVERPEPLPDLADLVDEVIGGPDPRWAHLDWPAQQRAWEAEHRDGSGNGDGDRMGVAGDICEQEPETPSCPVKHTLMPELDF
Chain of Perilipin-5 (Homo sapiens) + 1-acylglycerol-3-phosphate O-acyltransferase ABHD5 (Homo sapiens) (Q8WTS1 whole entry, looked up): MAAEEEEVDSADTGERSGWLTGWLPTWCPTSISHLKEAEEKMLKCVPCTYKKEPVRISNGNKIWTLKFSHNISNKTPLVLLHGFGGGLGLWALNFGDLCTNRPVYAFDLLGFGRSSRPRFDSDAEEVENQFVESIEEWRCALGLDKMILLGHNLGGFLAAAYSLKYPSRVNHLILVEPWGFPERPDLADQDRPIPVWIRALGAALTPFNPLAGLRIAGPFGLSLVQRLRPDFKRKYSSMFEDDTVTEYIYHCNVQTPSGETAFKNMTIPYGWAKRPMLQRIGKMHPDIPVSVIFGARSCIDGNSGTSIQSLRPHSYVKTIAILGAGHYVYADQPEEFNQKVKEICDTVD

Compound | IC50
O=C(/C=C/c1ccc2c(c1)OCCCO2)c1ccccc1O | 5650 nM
Oc1ccc2sc(-c3ccccc3O)c(-c3ccc(OCCN4CCCCC4)cc3)c2c1 | inactive
N#Cc1ncc(Cc2ccccc2)nc1C#N | 8580 nM
O=C(COc1ccccc1Cl)Nc1ccc(N2CCCC2)cc1 | > 39900 nM (inactive)
Cc1nc2c(o1)CCc1ccccc1C2N1CCN(C)CC1 (stereo not drawn) | 8830 nM
CN(C)CCN(Cc1ccco1)c1ccccn1 | 7750 nM
CC(=O)Oc1ccc(C23c4ccccc4C2(OC(C)=O)c2cc(OC(C)=O)ccc23)cc1 (stereo not drawn) | 720 nM
C#CCN(C[C@@H]1[C@@H](OC(=O)NCCCCCC)[C@@H](OC(=O)NCCCCCC)Cn2c(=O)ccc(=O)n21)S(=O)(=O)c1ccc(C)cc1 | 4740 nM
CN1CCC[C@@H]1CCO[C@](C)(c1ccccc1)c1ccc(Cl)cc1 | inactive
CN1[C@@H]2CC[C@H]1CC(OC1c3ccccc3CCc3ccccc31)C2 (stereo partly drawn) | 2490 nM
CC(=O)Oc1c(Cl)cc(N(C(C)=O)S(=O)(=O)c2ccccc2)c2ccccc12 | 6550 nM
CC(O)CC(=O)OC[C@]12CC[C@H]3[C@@](C)(CC[C@H]4C(C)(C)CCC[C@]34C)[C@@H]1CC(C1=CC(=O)OC1O)O2 (stereo partly drawn) | 857 nM
COC(=O)c1cc(=O)n(-c2ccc(F)cc2)c(=Nc2ccc(F)cc2)s1 | 3090 nM
O=C(O)CC(O)(CC(=O)O)C(=O)O | 5630 nM
CCCCCNC(=O)C(c1ccccc1F)n1c(=O)c(-c2ccco2)nc2ccccc21 (stereo not drawn) | 862 nM
C#CCN(C[C@@H]1[C@@H](OC(=O)NC2CCCC2)[C@@H](OC(=O)NC2CCCC2)Cn2c(=O)ccc(=O)n21)S(=O)(=O)c1ccc(C)cc1 | 3690 nM
Cc1cc(C)c(NC(=O)C[N+](C)(C)CC(O)COc2cccc3ccccc23)c(C)c1 (stereo not drawn) | 7490 nM
CCOC(=O)c1c(NC(C)=O)sc2c1CCC(C=O)=C2Sc1ccccc1 | 2400 nM
COc1cc2c(cc1OC)C(C)N(CCc1ccc(Cl)cc1)CC2 (stereo not drawn) | inactive
CC1CN(Cc2c(O)ccc3c2oc(=O)c2ccccc23)CC(C)O1 (stereo not drawn) | 2120 nM

Compound | IC50
CC(C)(C)NC(=O)C(c1ccccc1)n1c(=O)c(-c2ccco2)nc2ccccc21 (stereo not drawn) | 2160 nM
CC(C)(C)NC(=O)C(c1ccnc2ccccc12)n1c(=O)c(-c2ccco2)nc2ccccc21 (stereo not drawn) | 4810 nM
O=C1NC(=O)N(Cc2ccc(F)cc2)C(=O)/C1=C\C=C\c1ccco1 | 1360 nM
Cc1ccc(CC2(OCCN(C)C)CCC(C(C)(C)C)CC2)cc1 (stereo not drawn) | 8610 nM
Cc1cc(C)c2nc(NNC(=O)c3ccc(S(=O)(=O)N4CCCC(C)C4)cc3)sc2c1 (stereo not drawn) | 5270 nM
CN(C)CCOc1ccc(-c2c(-c3ccccc3)sc3ccccc23)cc1 | inactive
CCN1CCN(Cc2ccc(NC(=O)c3ccc(C)c(/C=C/c4cnc(Nc5cc(N6CCNCC6)nc(C)n5)cn4)c3)cc2C(F)(F)F)CC1 | 2580 nM
CC(=O)Cc1cc(O)c2ccccc2c1OC(=O)c1ccc(Br)cc1 | 2520 nM
CSC(=Nc1ccccc1)N=C(SCc1ccccc1)N(C)C | 1170 nM
CCN(CC)CCN(CC(=O)Nc1c(C)cc(C)cc1C)C(=O)c1ccccc1 | 9740 nM
CCN(CCCc1ccccc1)CCCc1ccccc1 | 2660 nM
CC(=O)C1=C(c2cccc([N+](=O)[O-])c2)N(C(C)=O)n2c(C)nnc2S1 | 2860 nM
C#CCN(C[C@@H]1[C@@H](OC(=O)NCC2CCCCC2)[C@@H](OC(=O)NCC2CCCCC2)Cn2c(=O)ccc(=O)n21)S(=O)(=O)c1ccc(C)cc1 | 3600 nM
Cc1ccc2nc3cc([N+](=O)[O-])cc([N+](=O)[O-])c3cc2c1 | 600 nM
COc1ccc(-c2cc(N)n(S(=O)(=O)c3c(F)c(F)c(F)c(F)c3F)n2)cc1OC | 6830 nM
Cc1cccc(C)c1NC(=O)C(c1ccc(C(F)(F)F)cc1)n1c(=O)c(-c2ccco2)nc2ccccc21 (stereo not drawn) | 2220 nM
O=S(=O)(NC1=NCCCCC1)c1ccc2sc(NS(=O)(=O)c3ccc4ccccc4c3)nc2c1 | inactive
CC(=O)Nc1ccc(OCc2cn(CC(=O)c3ccc(O)cc3)nn2)cc1 | 2320 nM
N#Cc1ccccc1OCc1cn(CC(=O)c2ccc(O)cc2)nn1 | 3680 nM
CC1=CC(C)(C)Nc2ccc(OC(=O)C(C)N3C(=O)c4ccccc4C3=O)cc21 (stereo not drawn) | 2640 nM

Compound | IC50
O=C1NC(=O)N(c2ccccc2F)C(=O)/C1=C/c1ccc(Oc2ccc([N+](=O)[O-])cn2)cc1 | 1470 nM
Cc1ccc(CS(=O)(=O)c2ncc(Cl)c(C(=O)Nc3nnc(C(C)C)s3)n2)cc1 | 1380 nM
Cc1nnc(NC(=O)c2nc(S(=O)(=O)Cc3ccccc3C)ncc2Cl)s1 | 2710 nM
CC1=CC(C)(C)Nc2ccc(OC(=O)CN3C(=O)c4cccc5cccc(c45)C3=O)cc21 | 6890 nM
O=C(/C(=C/O)N=Nc1ccc(Cl)cc1)c1ccncc1 | 8340 nM
O=C(NCc1ccccc1)C(c1ccccc1F)n1c(=O)c(-c2ccco2)nc2ccccc21 (stereo not drawn) | 2270 nM
CC1=CC(C)(C)Nc2ccc(OC(=O)c3cccnc3)cc21 | 2230 nM
O=C(/C(=C/c1ccccc1)n1cncn1)c1ccc(Cl)cc1Cl | 2490 nM
COc1ccc(C(C(=O)NC(C)(C)C)n2c(=O)c(-c3ccco3)nc3ccccc32)cc1 (stereo not drawn) | 1690 nM
Cc1cccc(C)c1NC(=O)C(c1ccc(C#N)cc1)n1c(=O)c(-c2ccco2)nc2ccccc21 (stereo not drawn) | 2450 nM
CSc1nnc(NC(=O)c2nc(S(=O)(=O)Cc3ccc(C)cc3)ncc2Cl)s1 | 2510 nM
CC(C)c1ccc(N2C=Nc3ccc(C(C)C)cc3C2)cc1 | inactive
COc1ccc(NC(=O)C(c2cccc3ccccc23)n2c(=O)c(-c3ccco3)nc3ccccc32)cc1 (stereo not drawn) | inactive
Cc1cccc(C)c1NC(=O)C(c1ccccc1F)n1c(=O)c(-c2ccco2)nc2ccccc21 (stereo not drawn) | 2730 nM
COC(=O)c1cc(=O)n(Cc2ccco2)c(=Nc2ccc(F)cc2)s1 | 3680 nM
CCC(c1nc2ccccc2[nH]1)n1c(=O)c(-c2ccco2)nc2ccccc21 (stereo not drawn) | 3110 nM
N#Cc1ccc(C(C(=O)NCc2ccccc2)n2c(=O)c(-c3ccco3)nc3ccccc32)cc1 (stereo not drawn) | 1560 nM
COc1ccc(C(C(=O)Nc2c(C)cccc2C)n2c(=O)c(-c3ccco3)nc3ccccc32)cc1 (stereo not drawn) | 2380 nM
